Assay results taken from patent US10442804B2, “Compounds for the treatment of hepatitis B virus infection” (Gilead Sciences, Inc., priority 2017, dated 2019).
Like-named read-outs stand apart in the source and are kept apart here.

Columns and labels:
[1] = test system: HBV-infected NTCP-HepG2 cells, secreted HBsAg; experiment: microbe, parasite or virus in culture; format: cell-based, hepatitis B virus (genotype D, AD38-derived); details: Hepatitis B virus, 120 h, secreted HBsAg in supernatant after 5 days; geometric mean of minimum four determinations; read-out: NTCP HBsAg EC50
Experimental: NTCP-HepG2 Antiviral Assay for Secreted HBsAg
HepG2 cells stably expressing sodium-taurocholate cotransporting polypeptide (NTCP-HepG2) were grown in Dulbecco's Modified Eagle Medium (DMEM) without sodium pyruvate (Thermo Fisher Scientific, Waltham, Mass.) supplemented with 10% fetal bovine serum, 2 mM L-glutamine, 1% penicillin/streptomycin, and 0.25 mg/mL G-418. NTCP-HepG2 cells were infected with 4000 genome equivalent per cell of genotype D (AD38-derived) HBV in DMEM without sodium pyruvate (Thermo Fisher Scientific, Waltham, Mass.) supplemented with 2% fetal bovine serum, 2 mM L-glutamine, 1% penicillin/streptomycin, 2.5% DMSO, and 4% PEG 8000 (Promega, Madison, Wis.). After 24-hour incubation, cells were washed three times with OptiMEM (Thermo Fisher Scientific, Waltham, Mass.) and fed with fresh DMEM without sodium pyruvate (Thermo Fisher Scientific, Waltham, Mass.) supplemented with 2% fetal bovine serum, 2 mM L-glutamine, 1% penicillin/streptomycin, and 2.5% DMSO. At 4 days after infection, infected NTCP-HepG2 cells were seeded on 384-well plates pre-coated with collagen at a density of 20000 cells per well containing serially diluted compounds of the present disclosure or DMSO (0.5%) in a final volume of 80 μl of DMEM without sodium pyruvate (Thermo Fisher Scientific, Waltham, Mass.) supplemented with 2% fetal bovine serum, 2 mM L-glutamine, 1% penicillin/streptomycin, and 1% DMSO. After an incubation time of 5 days, cell culture supernatant was collected and measured for HBsAg.
Secreted HBsAg in the supernatant were measured using a multiplex chemiluminescent MSD assay (Meso Scale Discovery, Rockville, Md.) using capture and detection antibody pairs specific for HBsAg. The EC50 values were calculated from the fit of the dose-response curves to a four-parameter equation. All EC50 values represent geometric mean values of a minimum of four determinations.

MT-4 cytotoxicity assay = format: cell-based, human; details: human
Experimental: Biological Example 2: MT-4 Cytotoxicity Assay
The MT-4 cell line (HTLV-1 transformed, human T lymphoblastoid cells) was obtained from the NIH AIDS Reagent program (Bethesda, Md.). MT-4 cells were maintained in RPMI-1640 media (Thermo Fisher Scientific, Waltham, Mass.) supplemented with 10% fetal bovine serum, 100 Units/mL penicillin, and 100 μg/mL streptomycin. For the MT-4 cytotoxicity assay, 0.4 μL of serially diluted solutions of certain compounds disclosed herein were added to 40 μL of cell maintenance media in 384-well black, solid bottom plate using a Biomek FX workstation (Beckman Coulter, Brea, Calif.). Two thousand cells in 35 μL were added to each well using a Biotek uFlow Workstation (Biotek, Winooski, Vt.). Each assay plate contained 10 μM puromycin (final concentration) and 0.5% DMSO in RPMI-1640 media as positive and negative controls, respectively. Assay plates were incubated for five days at 37° C. in an incubator set at 5% CO2 and 90% humidity. After five days, 22 μL of Cell Titer Glo reagent (Promega, Madison, Wis.) was added to the assay plates with a Biotek uFlow Workstation. Plates were subsequently placed on an Envision Plate Reader (Perkin Elmer, Waltham, Mass.) for five minutes before the luminescence signal was read. CC50 values were defined as the compound concentration that caused a 50% decrease in luminescence signal, and were calculated by non-linear regression using Pipeline Pilot software by applying a four parameter fit equation (Accelrys, San Diego, Calif.) and are reported in the following Table 1.

[2] = five days, Cell Titer Glo luminescence, read-out: MT-4 CC50

Structure (SMILES) | EC50 [1] [nM] | CC50 at 5 days (MT-4 cytotoxicity assay; [2]) [nM] | CC50 at 5 days (MT-4 cytotoxicity assay; MT-4 CC50) [nM]
CCc1cc2c(cc1OCC13CC(C#N)(C1)C3)[C@H]1CCC(C)(C)N1n1cc(C(=O)O)c(=O)cc1-2 [Example 100, (R)-12-((3-cyanobicyclo[1.1.1]pentan-1-yl)methoxy)-11-ethyl-3,3-dimethyl-8-oxo-2,3,8,13b-tetrahydro-1H-pyrido[2,1-a]pyrrolo[1,2-c]phthalazine-7-carboxylic acid] | 0.48 | 3900 | –
COCCCOc1cc2c(cc1Cl)-c1cc(=O)c(C(=O)O)cn1N1[C@H]2CCC12CC2 (single isomer, unassigned) [Example 57] | > 1000 | – | > 10000
COCCCOc1cc2c(cc1Cl)-c1cc(=O)c(C(=O)O)cn1N1CCCC(C)(C)C21 (stereo not drawn) [Example 38, 13-chloro-12-(3-methoxypropoxy)-10,10-dimethyl-2-oxo-2,7,8,9,10,10a-hexahydrodipyrido[2,1-a:1′,2′-c]phthalazine-3-carboxylic acid] | 27 | 9900 | –
CCOc1cc2c(cc1OCCCOC)[C@H]1CCC(C)(C)N1n1cc(C(=O)O)c(=O)cc1-2 [Example 21, (R)-11-ethoxy-12-(3-methoxypropoxy)-3,3-dimethyl-8-oxo-2,3,8,13b-tetrahydro-1H-pyrido[2,1-a]pyrrolo[1,2-c]phthalazine-7-carboxylic acid] | 7.5 | > 10000 | –
COCCCOc1cc2c(cc1Cl)-c1cc(=O)c(C(=O)O)cn1N1C2CCC12CC2 (stereo not drawn) [Example 59, 11′-chloro-12′-(3-methoxypropoxy)-8′-oxo-1′,2′,8′,13b′-tetrahydrospiro[cyclopropane-1,3′-pyrido[2,1-a]pyrrolo[1,2-c]phthalazine]-7′-carboxylic acid] | 6 | – | > 10000
COc1cc2c(cc1C#CC(C)(C)S(=O)(=O)C1CC1)[C@H]1CCC(C)(C)N1n1cc(C(=O)O)c(=O)cc1-2 [Example 84, (R)-12-(3-(cyclopropylsulfonyl)-3-methylbut-1-yn-1-yl)-11-methoxy-3,3-dimethyl-8-oxo-2,3,8,13b-tetrahydro-1H-pyrido[2,1-a]pyrrolo[1,2-c]phthalazine-7-carboxylic acid] | 11.2 | > 10000 | –
CC1(C)CC[C@@H]2c3cc(OCCCOC(F)(F)F)c(Cl)cc3-c3cc(=O)c(C(=O)O)cn3N21 [Example 55, (R)-11-chloro-3,3-dimethyl-8-oxo-12-(3-(trifluoromethoxy)propoxy)-2,3,8,13b-tetrahydro-1H-pyrido[2,1-a]pyrrolo[1,2-c]phthalazine-7-carboxylic acid] | 3.7 | 6800 | –
COCCCOc1cc2c(cc1Cl)-c1cc(=O)c(C(=O)O)cn1N1C2CCC1(C)C (stereo not drawn) [Example 4, 11-chloro-12-(3-methoxypropoxy)-3,3-dimethyl-8-oxo-2,3,8,13b-tetrahydro-1H-pyrido[2,1-a]pyrrolo[1,2-c]phthalazine-7-carboxylic acid] | 3.9 | > 10000 | –
COCCCOc1cc2c(cc1CO)-c1cc(=O)c(C(=O)O)cn1N1[C@@H]2CCC1(C)C [Compound 113, (R)-11-(hydroxymethyl)-12-(3-methoxypropoxy)-3,3-dimethyl-8-oxo-2,3,8,13b-tetrahydro-1H-pyrido[2,1-a]pyrrolo[1,2-c]phthalazine-7-carboxylic acid] | 22.7 | > 10000 | –
COCCCOc1cc2c(cc1Cl)-c1cc(=O)c(C(=O)O)cn1N1[C@H]2COCC1(C)C (single isomer, unassigned) [Example 39] | 680 | > 10000 | –
COc1cc2c(cc1-c1cnn(C(F)F)c1)[C@H]1CCC(C)(C)N1n1cc(C(=O)O)c(=O)cc1-2 [Example 44, (R)-12-(1-(Difluoromethyl)-1H-pyrazol-4-yl)-11-methoxy-3,3-dimethyl-8-oxo-2,3,8,13b-tetrahydro-1H-pyrido[2,1-a]pyrrolo[1,2-c]phthalazine-7-carboxylic acid] | 5.5 | 3000 | –
COCCCOc1cc2c(cc1Cl)-c1cc(=O)c(C(=O)O)cn1N1CC(C)(C)C[C@@H]21 (single isomer, unassigned) [Example 30] | 10 | > 10000 | –
COc1cc2c(cc1C#CC(C)(C)OC)[C@H]1CCC(C)(C)N1n1cc(C(=O)O)c(=O)cc1-2 [Example 43] | 7.6 | > 10000 | –
CC1(C)CC[C@@H]2c3cc(OCCn4nc5ccccn5c4=O)c(OC(F)(F)F)cc3-c3cc(=O)c(C(=O)O)cn3N21 [Example 91, (R)-3,3-dimethyl-8-oxo-12-(2-(3-oxo-[1,2,4]triazolo[4,3-a]pyridin-2(3H)-yl)ethoxy)-11-(trifluoromethoxy)-2,3,8,13b-tetrahydro-H-pyrido[2,1-a]pyrrolo[1,2-c]phthalazine-7-carboxylic acid] | 3 | > 10000 | –
COc1cc2c(cc1C#Cc1cncn1C)[C@H]1CCC(C)(C)N1n1cc(C(=O)O)c(=O)cc1-2 [Example 42, (R)-11-methoxy-3,3-dimethyl-12-((1-methyl-1H-imidazol-5-yl)ethynyl)-8-oxo-2,3,8,13btetrahydro-1H-pyrido[2,1-a]pyrrolo[1,2-c]phthalazine-7-carboxylic acid] | 4.8 | > 10000 | –
COCCCOc1cc2c(cc1Cl)-c1cc(=O)c(C(=O)O)cn1N1[C@@H]2CC1(C)C [Example 46, (R)-10-chloro-11-(3-methoxypropoxy)-2,2-dimethyl-7-oxo-1,2,7,12b-tetrahydroazeto[2,1-a]pyrido[1,2-c]phthalazine-6-carboxylic acid and (S)-10-chloro-1-(3-methoxypropoxy)-2,2-dimethyl-7-oxo-1,2,7,12b-tetrahydroazeto[2,1-a]pyrido[1,2-c]phthalazine-6-carboxylic acid] | 7.8 | > 10000 | –
CC1(COc2cc3c(cc2Cl)-c2cc(=O)c(C(=O)O)cn2N2[C@@H]3CCC2(C)C)COC1 [Example 49, (R)-11-chloro-3,3-dimethyl-12-((3-methyloxetan-3-yl)methoxy)-8-oxo-2,3,8,13b-tetrahydro-1H-pyrido[2,1-a]pyrrolo[1,2-c]phthalazine-7-carboxylic acid] | 3.8 | > 10000 | –
CC1(C)CC[C@@H]2c3cc(-c4cnn(C5COC5)c4)c(OC(F)(F)F)cc3-c3cc(=O)c(C(=O)O)cn3N21 [Example 93, (R)-3,3-dimethyl-12-(1-(oxetan-3-yl)-1H-pyrazol-4-yl)-8-oxo-11-(trifluoromethoxy)-2,3,8,13b-tetrahydro-1H-pyrido[2,1-a]pyrrolo[1,2-c]phthalazine-7-carboxylic acid] | 4.4 | > 10000 | –
CC1(C)CC[C@@H]2c3cc(OCC4CC(F)(F)C4)c(Cl)cc3-c3cc(=O)c(C(=O)O)cn3N21 [Example 54, (R)-11-chloro-12-((3,3-difluorocyclobutyl)methoxy)-3,3-dimethyl-8-oxo-2,3,8,13b-tetrahydro-1H-pyrido[2,1-a]pyrrolo[1,2-c]phthalazine-7-carboxylic acid] | 0.75 | 5300 | –
COCc1cc2c(cc1OCCn1nc3ccccn3c1=O)[C@H]1CCC(C)(C)N1n1cc(C(=O)O)c(=O)cc1-2 [Example 95, (R)-11-(methoxymethyl)-3,3-dimethyl-8-oxo-12-(2-(3-oxo-[1,2,4]triazolo[4,3-a]pyridin-2(3H)-yl)ethoxy)-2,3,8,13b-tetrahydro-1H-pyrido[2,1-a]pyrrolo[1,2-c]phthalazine-7-carboxylic acid] | 4.6 | > 10000 | –
COCCCOc1cc2c(cc1OC)-c1cc(=O)c(C(=O)O)cn1N1[C@H]2CCCC1(C)C (single isomer, unassigned) [Example 53] | 9.1 | 9700 | –
